We go through five compounds from US20260166128A1, “HUMAN AMYLIN ANALOG, AND DERIVATIVE THEREOF AND USE THEREOF” (priority 2022, published 2026).

The structures appear in SMILES notation. Numbered stars: 1 amine (or outer) side, 2 acyl side, 3 side chain; on linkers, the order of the positions; unused ones are H or OH. Bridge positions count the residues as written; N and C are the ends. Square brackets hold non-standard residues; d marks the D form. Side chains are listed from the residue outwards. Peptide text beside a SMILES is read from it. * marks the point of attachment. C20 diacid = O=C(O)CCCCCCCCCCCCCCCCCCC(=O)*; C18 diacid = O=C(O)CCCCCCCCCCCCCCCCC(=O)*; γGlu = O=C(O)[C@H](CCC(=O)[*:2])N[*:1]; Hyp = O=C(O)[C@@H]1C[C@@H](O)CN1; AEEA = NCCOCCOCC(=O)O

For the assay, the target named is T1, human amylin receptor (Homo sapiens, UniProt O60896+P30988).
T1 construct: host or cells: CHO-K1/Ga15/AMY3 cells, further stably transfected with a CRE-luciferase plasmid
T1 sequence (P30988 25-474): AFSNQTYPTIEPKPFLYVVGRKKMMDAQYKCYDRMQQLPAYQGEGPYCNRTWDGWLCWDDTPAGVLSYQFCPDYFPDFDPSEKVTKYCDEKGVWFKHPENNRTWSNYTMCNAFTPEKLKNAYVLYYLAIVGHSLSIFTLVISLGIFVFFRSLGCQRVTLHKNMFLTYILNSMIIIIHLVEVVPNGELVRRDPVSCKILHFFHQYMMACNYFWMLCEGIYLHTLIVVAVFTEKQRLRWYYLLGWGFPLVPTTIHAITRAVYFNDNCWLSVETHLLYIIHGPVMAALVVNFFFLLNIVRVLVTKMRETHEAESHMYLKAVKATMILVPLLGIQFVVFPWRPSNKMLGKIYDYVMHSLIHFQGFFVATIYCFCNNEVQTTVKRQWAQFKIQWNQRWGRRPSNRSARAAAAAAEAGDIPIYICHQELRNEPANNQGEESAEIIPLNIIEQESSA
T1 sequence (O60896 24-148 partner): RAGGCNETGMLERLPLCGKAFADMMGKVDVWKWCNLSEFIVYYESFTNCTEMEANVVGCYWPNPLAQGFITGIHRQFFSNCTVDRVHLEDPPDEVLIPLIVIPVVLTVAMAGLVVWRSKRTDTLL
Description: Luciferase assay of amylin derivatives in amylin receptor/CRE-luc CHO cell line. It counts as cell-based. The conditions noted are these: CHO-K1/Ga15/AMY3 CRE-luc cells, 24 hours incubation, F12 medium containing 10% FBS; read-out: EC50.
Description: The experiment was intended to detect the activity or efficacy of the amylin derivatives on a human amylin receptor in vitro by luciferase assay.
50 μL of growth medium (F12 medium containing 10% FBS) was added into each well of a white 96-well plate, and the stably transfected amylin/CRE-lue CHO cells were inoculated into the white 96-well plate at a density of about 20,000 cells/well for activity determination.
Turning to `CC[C@H](C)[C@H](NC(=O)[C@@H]1CCCN1C(=O)[C@H](CCCCNC(=O)COCCOCCNC(=O)CC[C@H](NC(=O)CCCCCCCCCCCCCCCCCCC(=O)O)C(=O)O)NC(=O)[C@H](CC(C)C)NC(=O)[C@H](CC(N)=O)NC(=O)[C@H](CC(N)=O)NC(=O)[C@H](CO)NC(=O)[C@H](CO)NC(=O)[C@H](Cc1c[nH]cn1)NC(=O)[C@H](CCCNC(=N)N)NC(=O)[C@H](CC(C)C)NC(=O)[C@H](Cc1ccccc1)NC(=O)[C@H](CC(=O)O)NC(=O)[C@H](C)NC(=O)[C@H](CC(C)C)NC(=O)[C@H](CCCNC(=N)N)NC(=O)[C@H](CCC(N)=O)NC(=O)[C@@H](NC(=O)[C@H](C)NC(=O)[C@@H]1CSSC[C@H](NC(=O)[C@@H](N)CCCNC(=N)N)C(=O)N[C@@H](CC(N)=O)C(=O)N[C@@H]([C@@H](C)O)C(=O)N[C@@H](C)C(=O)N[C@@H]([C@@H](C)O)C(=O)N1)[C@@H](C)O)C(=O)N[C@@H](CC(C)C)C(=O)N1CCC[C@H]1C(=O)N1CCC[C@H]1C(=O)N[C@H](C(=O)N[C@@H](CC(N)=O)C(=O)N[C@H](C(=O)NCC(=O)N[C@@H](CO)C(=O)N[C@@H](CC(N)=O)C(=O)N[C@H](C(=O)N1C[C@H](O)C[C@H]1C(N)=O)[C@@H](C)O)C(C)C)[C@@H](C)O` [PD106] (H-RCNTATCATQRLADFLRHSSNNLK([AEEA-γGlu-C20 diacid])PILPPTNVGSNT[Hyp]-NH2; disulfide 2-7), the EC50 was 26 pM.

On to `CC[C@H](C)[C@H](NC(=O)[C@@H]1CCCN1C(=O)[C@H](CO)NC(=O)[C@H](CC(C)C)NC(=O)[C@H](CC(N)=O)NC(=O)[C@H](CC(N)=O)NC(=O)[C@H](CO)NC(=O)[C@H](CO)NC(=O)[C@H](Cc1c[nH]cn1)NC(=O)[C@H](CCCNC(=N)N)NC(=O)[C@H](CC(C)C)NC(=O)[C@H](Cc1ccccc1)NC(=O)[C@H](CC(=O)O)NC(=O)[C@H](C)NC(=O)[C@H](CC(C)C)NC(=O)[C@H](CCCNC(=N)N)NC(=O)[C@H](CCC(N)=O)NC(=O)[C@@H](NC(=O)[C@H](C)NC(=O)[C@@H]1CSSC[C@H](NC(=O)[C@H](CCCCN)NC(=O)CC[C@H](NC(=O)CCCCCCCCCCCCCCCCCCC(=O)O)C(=O)O)C(=O)N[C@@H](CC(N)=O)C(=O)N[C@@H]([C@@H](C)O)C(=O)N[C@@H](C)C(=O)N[C@@H]([C@@H](C)O)C(=O)N1)[C@@H](C)O)C(=O)N[C@@H](CC(C)C)C(=O)N1CCC[C@H]1C(=O)N1CCC[C@H]1C(=O)N[C@H](C(=O)N[C@@H](CC(N)=O)C(=O)N[C@H](C(=O)NCC(=O)N[C@@H](CO)C(=O)N[C@@H](CC(N)=O)C(=O)N[C@H](C(=O)N1CCC[C@H]1C(N)=O)[C@@H](C)O)C(C)C)[C@@H](C)O` [PD166] ({C20 diacid-γGlu}-KCNTATCATQRLADFLRHSSNNLSPILPPTNVGSNTP-NH2; disulfide 2-7 (inferred)), for which the EC50 was 54 pM.

For `CC[C@H](C)[C@H](NC(=O)[C@@H]1CCCN1C(=O)CNC(=O)[C@H](CC(C)C)NC(=O)[C@H](CC(N)=O)NC(=O)[C@H](CC(N)=O)NC(=O)[C@H](CCCCNC(=O)COCCOCCNC(=O)COCCOCCNC(=O)CC[C@H](NC(=O)CCCCCCCCCCCCCCCCCCC(=O)O)C(=O)O)NC(=O)[C@H](CO)NC(=O)[C@H](Cc1c[nH]cn1)NC(=O)[C@H](CCCNC(=N)N)NC(=O)[C@H](CC(C)C)NC(=O)[C@H](Cc1ccccc1)NC(=O)[C@H](CC(=O)O)NC(=O)[C@H](C)NC(=O)[C@H](CC(C)C)NC(=O)[C@H](CCCNC(=N)N)NC(=O)[C@H](CCC(N)=O)NC(=O)[C@@H](NC(=O)[C@H](C)NC(=O)[C@@H]1CSSC[C@H](NC(=O)[C@@H](N)CCCNC(=N)N)C(=O)N[C@@H](CC(N)=O)C(=O)N[C@@H]([C@@H](C)O)C(=O)N[C@@H](C)C(=O)N[C@@H]([C@@H](C)O)C(=O)N1)[C@@H](C)O)C(=O)N[C@@H](CC(C)C)C(=O)N1CCC[C@H]1C(=O)N1CCC[C@H]1C(=O)N[C@H](C(=O)N[C@@H](CC(N)=O)C(=O)N[C@H](C(=O)NCC(=O)N[C@@H](CO)C(=O)N[C@@H](CC(N)=O)C(=O)N[C@H](C(=O)N1C[C@H](O)C[C@H]1C(N)=O)[C@@H](C)O)C(C)C)[C@@H](C)O` [PD095] (H-RCNTATCATQRLADFLRHSK([AEEA-AEEA-γGlu-C20 diacid])NNLGPILPPTNVGSNT[Hyp]-NH2; disulfide 2-7), the concentration giving a half-maximal response (EC50) stood at 47 pM.

Turning to `CC[C@H](C)[C@H](NC(=O)[C@H](CCCCNC(=O)CC[C@H](NC(=O)CCCCCCCCCCCCCCCCC(=O)O)C(=O)O)NC(=O)CNC(=O)[C@H](CC(C)C)NC(=O)[C@H](CC(N)=O)NC(=O)[C@H](CC(N)=O)NC(=O)[C@H](CO)NC(=O)[C@H](CO)NC(=O)[C@H](Cc1c[nH]cn1)NC(=O)[C@H](CCCNC(=N)N)NC(=O)[C@H](CC(C)C)NC(=O)[C@H](Cc1ccccc1)NC(=O)[C@H](CC(=O)O)NC(=O)[C@H](C)NC(=O)[C@H](CC(C)C)NC(=O)[C@H](CCCNC(=N)N)NC(=O)[C@H](CCC(N)=O)NC(=O)[C@@H](NC(=O)[C@H](C)NC(=O)[C@@H]1CSSC[C@H](NC(=O)[C@@H](N)CCCNC(=N)N)C(=O)N[C@@H](CC(N)=O)C(=O)N[C@@H]([C@@H](C)O)C(=O)N[C@@H](C)C(=O)N[C@@H]([C@@H](C)O)C(=O)N1)[C@@H](C)O)C(=O)N[C@@H](CC(C)C)C(=O)N1CCC[C@H]1C(=O)N1CCC[C@H]1C(=O)N[C@H](C(=O)N[C@@H](CC(N)=O)C(=O)N[C@H](C(=O)NCC(=O)N[C@@H](CO)C(=O)N[C@@H](CC(N)=O)C(=O)N[C@H](C(=O)N1C[C@H](O)C[C@H]1C(N)=O)[C@@H](C)O)C(C)C)[C@@H](C)O` [PD104] (H-RCNTATCATQRLADFLRHSSNNLGK([γGlu-C18 diacid])ILPPTNVGSNT[Hyp]-NH2; disulfide 2-7), the EC50 amounted to 11 pM.

Regarding `CC[C@H](C)[C@H](NC(=O)[C@H](CCCCNC(=O)COCCOCCNC(=O)CC[C@H](NC(=O)CCCCCCCCCCCCCCCCC(=O)O)C(=O)O)NC(=O)CNC(=O)[C@H](CC(C)C)NC(=O)[C@H](CC(N)=O)NC(=O)[C@H](CC(N)=O)NC(=O)[C@H](CO)NC(=O)[C@H](CO)NC(=O)[C@H](Cc1c[nH]cn1)NC(=O)[C@H](CCCNC(=N)N)NC(=O)[C@H](CC(C)C)NC(=O)[C@H](Cc1ccccc1)NC(=O)[C@H](CC(=O)O)NC(=O)[C@H](C)NC(=O)[C@H](CC(C)C)NC(=O)[C@H](CCCNC(=N)N)NC(=O)[C@H](CCC(N)=O)NC(=O)[C@@H](NC(=O)[C@H](C)NC(=O)[C@@H]1CSSC[C@H](NC(=O)[C@@H](N)CCCNC(=N)N)C(=O)N[C@@H](CC(N)=O)C(=O)N[C@@H]([C@@H](C)O)C(=O)N[C@@H](C)C(=O)N[C@@H]([C@@H](C)O)C(=O)N1)[C@@H](C)O)C(=O)N[C@@H](CC(C)C)C(=O)N1CCC[C@H]1C(=O)N1CCC[C@H]1C(=O)N[C@H](C(=O)N[C@@H](CC(N)=O)C(=O)N[C@H](C(=O)NCC(=O)N[C@@H](CO)C(=O)N[C@@H](CC(N)=O)C(=O)N[C@H](C(=O)N1C[C@H](O)C[C@H]1C(N)=O)[C@@H](C)O)C(C)C)[C@@H](C)O` [PD121] (H-RCNTATCATQRLADFLRHSSNNLGK([AEEA-γGlu-C18 diacid])ILPPTNVGSNT[Hyp]-NH2; disulfide 2-7), the EC50 came out at 18 pM.

In general, EC50 refers to the concentration needed to bring the measured effect to its halfway point.
